Laboratory results taken from US20110160308A1, “Use of Monoamine Oxidase Inhibitors to Treat Outer Retina Disorders” (ALCON RESEARCH, LTD., priority 2006, published 2011).
Entries after “also recorded” stand apart in the source; their conditions may differ.

Assays:
MAO-B = biological target: T1, MAO-B (Rattus norvegicus, UniProt P19643); assay: In vitro MAO-B enzyme activity assay (radioenzymatic, 14C-phenylethylamine) in rat brain mitochondria; assay type: biochemical
T1 construct: of the invention in rat brain mitochondria; from tissue; host or cells: rat brain, crude mitochondrial fraction (male Wistar rats)
T1 sequence (P19643 1-520): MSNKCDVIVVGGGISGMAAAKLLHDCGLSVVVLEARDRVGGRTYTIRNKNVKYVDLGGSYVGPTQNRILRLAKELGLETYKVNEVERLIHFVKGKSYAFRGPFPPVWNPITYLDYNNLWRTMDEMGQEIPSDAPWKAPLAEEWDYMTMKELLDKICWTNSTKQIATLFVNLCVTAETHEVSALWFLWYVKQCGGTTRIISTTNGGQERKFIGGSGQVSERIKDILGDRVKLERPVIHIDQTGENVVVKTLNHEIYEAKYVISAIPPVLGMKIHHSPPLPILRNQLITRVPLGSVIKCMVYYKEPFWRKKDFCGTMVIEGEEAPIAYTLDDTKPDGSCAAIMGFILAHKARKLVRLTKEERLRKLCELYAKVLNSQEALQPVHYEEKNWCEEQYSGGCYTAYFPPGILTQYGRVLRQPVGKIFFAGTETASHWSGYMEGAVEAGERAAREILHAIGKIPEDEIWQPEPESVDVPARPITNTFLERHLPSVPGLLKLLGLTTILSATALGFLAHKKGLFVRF
Protocol: (§1) In Vitro MAO-A and MAO-B Enzyme Activities Assay
(§2) —Membrane Preparations (Crude Mitochondrial Fraction)
(§3) The crude homogenate was centrifuged at 2220 rpm for 10 minutes at +4° C. and the supernatant recovered. The pellet was homogenized and centrifuged again. The two supernatants were pooled and centrifuged at 9250 rpm for 10 minutes. The pellet was resuspended in fresh buffer and centrifuged at 11250 rpm for 10 minutes at +4° C. The resulting pellet was stored at −80° C.
(§4) —In Vitro Enzyme Activities Assay
(§5) The enzyme activities were assessed with a radioenzymatic assay using the substrates ^14C-serotonin (5-HT) and ^14C-phenylethylamine (PEA) for MAO-A and MAO-B, respectively.
(§6) The mitochondrial pellet (500 μg protein) was resuspended in 0.1 M phosphate buffer (pH 7.4). 500 μl of the suspension were added to a 50 μl solution of the test compound or buffer, and incubated for 30 min at 37° C. (preincubation) then the substrate (50 μl) was added. The incubation was carried out for 30 minutes at 37° C. (^14C-5-HT, 5 μM) or for 10 minutes at 37° C. (^14C-PEA, 0.5 μM).
(§7) After centrifugation, the deaminated metabolites were extracted with 3 ml of diethyl ether (5-HT) or toluene (PEA) and the radioactive organic phase was measured by liquid scintillation spectrometry at 90% efficiency. The amount of neutral and/or acidic metabolites formed as a result of MAO activity was obtained by measuring the radioactivity of the eluate.
(§8) The activity of MAO in the sample, corresponding to a percentage of radioactivity compared with the control activity in the absence of the inhibitor, was expressed as nmoles of substrate transformed/mg protein/min.
(§9) The drug inhibition curves were obtained from at least eight different concentration points, each in duplicate (10^−10 to 10^−5 M).

MAO-A = biological target: T2, MAO-A (Rattus norvegicus, UniProt P21396); assay: In vitro MAO-A enzyme activity assay (radioenzymatic, 14C-serotonin) in rat brain mitochondria; assay type: biochemical
T2 construct: of the invention in rat brain mitochondria; from tissue; host or cells: rat brain, crude mitochondrial fraction (male Wistar rats)
T2 sequence (P21396 1-526): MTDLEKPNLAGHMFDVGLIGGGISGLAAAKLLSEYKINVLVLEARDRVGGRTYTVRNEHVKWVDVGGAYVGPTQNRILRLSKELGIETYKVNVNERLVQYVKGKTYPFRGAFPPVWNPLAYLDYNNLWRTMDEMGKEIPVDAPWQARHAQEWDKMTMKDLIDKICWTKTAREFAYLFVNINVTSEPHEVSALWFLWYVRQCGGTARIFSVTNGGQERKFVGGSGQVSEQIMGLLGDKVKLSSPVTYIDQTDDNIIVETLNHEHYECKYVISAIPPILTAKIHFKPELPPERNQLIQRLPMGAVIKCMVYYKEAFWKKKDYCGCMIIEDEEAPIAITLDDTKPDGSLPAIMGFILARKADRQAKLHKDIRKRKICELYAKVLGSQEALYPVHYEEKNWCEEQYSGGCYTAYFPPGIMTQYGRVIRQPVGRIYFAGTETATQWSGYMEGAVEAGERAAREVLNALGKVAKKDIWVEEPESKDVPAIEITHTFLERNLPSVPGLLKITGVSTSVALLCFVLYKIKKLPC
Protocol: as §1, §2, §3, §4, §5, §6, §7, §8, §9

[1] = tested on: light-induced functional or morphological changes; assay: Light damage paradigms used by the present inventors; assay type: in vivo
[2] = tested on: mouse closed head injury model; conditions: 1 mg/kg; cited from earlier work
[3] = tested on: rat photo-oxidative induced retinopathy model; assay: Rat photo-oxidative induced retinopathy model (blue-light exposure; ERG and retinal morphology); assay type: in vivo; conditions: for Maximum ERG a-wave responses, % of normal: 5 days after 6-hour blue-light exposure
Protocol: Neuroprotective Activity of MAO Inhibitors in the Rat Photo-Oxidative Induced Retinopathy Model
Prevention of Photo-oxidative injury with Safinamide: The efficacy of Safinamide, a short acting MAO-B inhibitor, to protect retinal cells against the induction of photochemical lesions by blue-light exposure was assessed by measuring light-induced changes in retinal functioning (electroretinogram (ERG)) and evaluating retinal morphology changes.
Subjects. Male Sprague Dawley rats were randomly assigned to drug or vehicle experimental groups. Rats receiving vehicle (N=15) or drug treatment (Safinamide: 5 mg/kg, N=10; 15 mg/kg, N=10; 30 mg/kg, N=10; and 60 mg/kg, N=9) were pre-dosed (IP) at 48, 24 and 0 hours prior to a 6-hour light exposure (spectrally filtered blue light (˜220 fc)) and 24 and 48 hours after light exposure. Control rats were housed in their home cage under normal cyclic light exposure. Control rats were not dosed with either vehicle or drug.
Retinal Function Assessment. The ERG is a non-invasive clinical measurement of the electrical response of the eye to a flash of light. The a-wave and b-wave are two components of the ERG that are diagnostic of retinal function. The a-wave reflects outer retina function and is generated by interactions between photoreceptor and RPE while the b-wave reflects inner retina function, particularly on-bipolar cells. […] Changes in the a-wave amplitude or latency are diagnostic of outer retina pathology. The ERG was recorded after a five day recovery period from dark-adapted anesthetized rats (ketamine-HCl, 75 mg/Kg; xylazine, 6 mg/Kg). The eye's electrical response to a flash of light was elicited by viewing a ganzfeld. ERGs to a series of light flashes increasing in intensity were digitized to analyze temporal characteristics of the waveform and response voltage-log intensity relationship.
Light Microscopic Assessment of Retinal Lesions. Ocular tissues were fixed in a mixture of paraformaldehyde and glutaraldehyde, dehydrated in an ascending ethanol series, embedded in JB-4 plastic resin, and 1 to 1.5-micron thick sections were analyzed using a quantitative computer image analysis system attached to the microscope. Retinal Pigment Epithelium (RPE), Outer Nuclear Layer (ONL) and Inner to Nuclear Layer (INL) thickness as well as the length of inner segments (IS), where mitochondria are located, and outer segments (OS), which contain the light sensitive photopigment, were measured to assess outer retina protection.

[4] = tested on: rat photo-oxidative induced retinopathy model; assay: as above; assay type: in vivo; conditions: 15 to 60 mg/kg IP, 1-month recovery period
[5] = 15 and 60 mg/kg, light microscopy

| SMILES | IC50 (MAO-B) | IC50 (MAO-A) | other results |
| --- | --- | --- | --- |
| C[C@H](NCc1ccc(OCc2ccc(F)cc2)cc1)C(N)=O [(S)-2-[4-(4-Fluoro-benzyloxy)-benzylamino]-propionamide] | 60 nM | 93000 nM |  |
| COCCOC(=O)C1=C(C)NC(C)=C(C(=O)OC(C)C)C1c1cccc([N+](=O)[O-])c1 (stereo not drawn) [nimodipine] |  |  | preventing light-induced functional or morphological changes [1]: no effect |
| Fc1ccc(C(c2ccc(F)cc2)N2CCN(C/C=C/c3ccccc3)CC2)cc1 [flunarizine] |  |  | preventing light-induced functional or morphological changes [1]: moderately effective |
| C#CCN[C@@H]1CCc2ccccc21 [Rasagiline] |  |  | cerebral edema reduction [2]: 40-50% |
| C[C@H](NCc1ccc(OCc2cccc(F)c2)cc1)C(N)=O [Safinamide, (S)-2-[4-(3-Fluoro-benzyloxy)-benzylamino]-propionamide] | 90 nM | 584000 nM | Maximum ERG a-wave responses, % of normal ([3]; 5 mg/kg IP): 52 % of normal; Maximum ERG a-wave responses, % of normal ([3]; 15 mg/kg IP): greater than 70 % of normal; Maximum ERG a-wave responses, % of normal ([3]; 30 mg/kg IP): greater than 70 % of normal; Retinal responses (ERG) compared to control rats ([3]; 60 mg/kg IP, 5 days after blue-light exposure): not significantly diminished compared to control rats; photoreceptor segment length compared to vehicle-dosed rats ([3]; 60 mg/kg, light microscopy): significantly longer; retinal lesions ([3]; 60 mg/kg, light microscopy): devoid of any significant retinal lesions; retinal lesions ([3]; 60 mg/kg, light microscopy, listed as safinamide): devoid of significant retinal lesions; ERG (retinal function) protection compared to vehicle-dosed rats ([3]; 5-60 mg/kg IP, 5-day recovery period): Significant dose-dependent protection of retinal function; also recorded: significant ERG protection; ONL thickness compared to vehicle-dosed rats [3, 5]: significantly thicker; RPE thickness compared to vehicle-dosed rats [3, 5]: thicker RPE compared to vehicle-dosed rats; reduction in retinal lesions across doses ([3]; light microscopy, all doses): Dose-dependent reduction in retinal lesions; ERG a- and b-wave function after 1-month recovery [4]: not significantly different from normal; also recorded: normal ERG a- and b-wave function; ERG a- and b-wave function after 1-month recovery ([4]; listed as safinamide): significant and complete retinal function protection |
| Cc1c(C)c2c(c(C)c1O)CC[C@@](C)(CCC[C@H](C)CCC[C@H](C)CCCC(C)C)O2 [α-tocopherol] |  |  | preventing light-induced functional or morphological changes [1]: ineffective |
| NC(=O)[C@H](CO)NCc1ccc(OCc2cccc(Cl)c2)cc1 [(S)-2-[4-(3-Chloro-benzyloxy)-benzylamino]-3-hydroxy-propionamide] | 40 nM | 84000 nM |  |
| C[C@H](NCc1ccc(OCc2cccc(Cl)c2)cc1)C(N)=O [(S)-2-[4-(3-Chloro-benzyloxy)-benzylamino]-propionamide] | 30 nM | 114000 nM |  |
| NC(=O)[C@H](CO)NCc1ccc(OCc2cccc(F)c2)cc1 [(S)-2-[4-(3-Fluoro-benzyloxy)-benzylamino]-3-hydroxy-propionamide] | 140 nM |  |  |
| C[C@H](NCc1ccc(OCc2ccccc2F)cc1)C(N)=O [(S)-2-[4-(2-Fluoro-benzyloxy)-benzylamino]-propionamide] | 180 nM | 228000 nM |  |
| CN(CC(N)=O)Cc1ccc(OCc2cccc(Cl)c2)cc1 [2-{[4-(3-Chloro-benzyloxy)-benzyl]-methyl-amino}-acetamide] | 40 nM | 50000 nM |  |
| C[C@H](NCc1ccc(OCC2CCCCC2)cc1)C(N)=O [(S)-2-(4-Cyclohexylmethoxy-benzylamino)-propionamide] | 30 nM | 301000 nM |  |
| NC(=O)[C@@H](CO)NCc1ccc(OCc2cccc(Cl)c2)cc1 [(R)-2-[4-(3-Chloro-benzyloxy)-benzylamino]-3-hydroxy-propionamide] | 110 nM | > 100000 nM |  |
| C[C@@H](C(N)=O)N(C)Cc1ccc(OCc2cccc(Cl)c2)cc1 [(S)-2-{[4-(3-Chloro-benzyloxy)-benzyl]-methyl-amino}-propionamide] | 60 nM | 82000 nM |  |
